Target: human Autotaxin protein (Homo sapiens, UniProt Q13822)
Experiment: Evaluation of the inhibitory activity against human Autotaxin protein (18:1 LysoPC substrate, choline assay kit, absorbance at 570 nm)
Type: biochemical
Details: compound at 500nM; 2 hours at 37 °C; % inhibition = (1 - absorbance test group / absorbance control group) X 100
Description: Solutions of each compound synthesized (80 uM, 100% dimethyl sulfoxide) were sequentially diluted 5-fold with dimethyl sulfoxide to prepare 6 concentrations. Each concentration of the compound was diluted 2-fold with 1x test buffer (50 mM Tris-Cl (pH 8.0), 5 mM KCl, 1 mM CaCl2, 1 mM MgCl2, 140 mM NaCl, deionized water, 1 mg/mL BSA), and 1 uL (1.25% dimethyl sulfoxide) of this diluted mixture was dispensed into each well of a 96-well clear round-bottom plate. 9 uL of 1x test buffer was added, and 20 uL of 240 nM human autotaxin protein (buffer: 50 mM Tris-HCl, pH 8.0, with 150 mM sodium chloride and 20% glycerol) was added. 10 uL of sonicated 360 uM 18:1 LysoPC (diluted with 1x assay buffer) was added. The reaction was performed for 2 hours in a shaking incubator at 37 °C, and a secondary reaction mixture (choline assay kit, KA1662) (65 uL of 1x assay buffer: 1 uL of choline oxidase: 1 uL of dye probe) was prepared. 60 uL of the secondary reaction mixture was added to the plate where the reaction was performed, and incubated for 30 minutes in a shaker. The absorbance value was measured at a wavelength of 570 nm using a SpectraMax iD3 microplate reader. The percentage inhibition activity value (% inhibition) was calculated by the formula: (1 - absorbance value test group / absorbance value control group) X 100.

SMILES | inhibition at 0.5 µM [%]
O=C(/C=C/c1cnc(NC2Cc3cc(F)c(F)cc3C2)nc1)N1CC(c2c[nH]nn2)C1 [Example 40, (E)-1-(3-(1H-1,2,3-triazol-4-yl)azetidin-1-yl)-3-(2-((5,6-difluoro-2,3-dihydro-1H-inden-2-yl)amino)pyrimidin-5-yl)prop-2-en-1-one] | 98.6
Cn1nncc1C1CN(c2nnc(-c3cnc(NC4Cc5cc(F)c(F)cc5C4)nc3)o2)C1 [Example 41, N-(5,6-difluoro-2,3-dihydro-1H-inden-2-yl)-5-(5-(3-(1-methyl-1H-1,2,3-triazol-5-yl)azetidin-1-yl)-1,3,4-oxadiazol-2-yl)pyrimidin-2-amine] | 70.6
c1ccc2c(c1)CC(Nc1ncc(-c3nnc(N4CC(c5c[nH]nn5)C4)o3)cn1)C2 [Example 42, 5-(5-(3-(1H-1,2,3-triazol-4-yl)azetidin-1-yl)-1,3,4-oxadiazol-2-yl)-N-(2,3-dihydro-1H-inden-2-yl)pyrimidin-2-amine] | 97.8
Fc1cc2c(cc1F)CC(Nc1ncc(C3CC(N4CC(c5c[nH]nn5)C4)=NO3)cn1)C2 (stereo not shown) [Example 43, 5-(3-(3-(1H-1,2,3-triazol-4-yl)azetidin-1-yl)-4,5-dihydroisoxazol-5-yl)-N-(5,6-difluoro-2,3-dihydro-1H-inden-2-yl)pyrimidin-2-amine] | 35.4
O=C(CCc1cnc(NC2Cc3cc(F)c(F)cc3C2)nc1)N1CC(c2c[nH]nn2)C1 [Example 44, 1-(3-(1H-1,2,3-triazol-4-yl)azetidin-1-yl)-3-(2-((5,6-difluoro-2,3-dihydro-1H-inden-2-yl)amino)pyrimidin-5-yl)propan-1-one] | 51.5
Fc1cc2c(cc1F)CC(Nc1ncc(-c3cc(N4CC(c5c[nH]nn5)C4)no3)cn1)C2 [Example 45, 5-(3-(3-(1H-1,2,3-triazol-4-yl)azetidin-1-yl)isoxazol-5-yl)-N-(5,6-difluoro-2,3-dihydro-1H-inden-2-yl)pyrimidin-2-amine] | 43
NS(=O)(=O)C1CN(c2nnc(-c3cnc(NC4Cc5cc(F)c(F)cc5C4)nc3)o2)C1 [Example 46, 1-(5-(2-((5,6-difluoro-2,3-dihydro-1H-inden-2-yl)amino)pyrimidin-5-yl)-1,3,4-oxadiazol-2-yl)azetidine-3-sulfonamide] | 27.1
COC(=O)C1CN(c2nnc(-c3cnc(NC4Cc5cc(F)c(F)cc5C4)nc3)o2)C1 [Example 47, methyl 1-(5-(2-((5,6-difluoro-2,3-dihydro-1H-inden-2-yl)amino)pyrimidin-5-yl)-1,3,4-oxadiazol-2-yl)azetidine-3-carboxylate] | 7.5
Fc1cc(F)cc(CNc2ncc(-c3nnc(N4CC(c5c[nH]nn5)C4)o3)cn2)c1 [Example 48, 5-(5-(3-(1H-1,2,3-triazol-4-yl)azetidin-1-yl)-1,3,4-oxadiazol-2-yl)-N-(3,5-difluorobenzyl)pyrimidin-2-amine] | 39.2
OC1CN(c2nnc(-c3cnc(NC4Cc5cc(F)c(F)cc5C4)nc3)o2)C1 [Example 49, 1-(5-(2-((5,6-difluoro-2,3-dihydro-1H-inden-2-yl)amino)pyrimidin-5-yl)-1,3,4-oxadiazol-2-yl)azetidin-3-ol] | 11
O=C(O)C1CN(c2nnc(-c3cnc(NC4Cc5cc(F)c(F)cc5C4)nc3)o2)C1 [Example 50, 1-(5-(2-((5,6-difluoro-2,3-dihydro-1H-inden-2-yl)amino)pyrimidin-5-yl)-1,3,4-oxadiazol-2-yl)azetidine-3-carboxylic acid] | 14
CC1(c2c[nH]nn2)CN(c2nnc(-c3cnc(NC4Cc5cc(F)c(F)cc5C4)nc3)o2)C1 [Example 51, N-(5,6-difluoro-2,3-dihydro-1H-inden-2-yl)-5-(5-(3-methyl-3-(1H-1,2,3-triazol-4-yl)azetidin-1-yl)-1,3,4-oxadiazol-2-yl)pyrimidin-2-amine] | 91.8
COC(=O)CC1CN(c2nnc(-c3cnc(NC4Cc5cc(F)c(F)cc5C4)nc3)o2)C1 [Example 52, Methyl 2-(1-(5-(2-((5,6-difluoro-2,3-dihydro-1H-inden-2-yl)amino)pyrimidin-5-yl)-1,3,4-oxadiazol-2-yl)azetidin-3-yl)acetate] | 21.9
O=C(O)CC1CN(c2nnc(-c3cnc(NC4Cc5cc(F)c(F)cc5C4)nc3)o2)C1 [Example 53, 2-(1-(5-(2-((5,6-difluoro-2,3-dihydro-1H-inden-2-yl)amino)pyrimidin-5-yl)-1,3,4-oxadiazol-2-yl)azetidin-3-yl)acetic acid] | 24.7
Fc1cc2c(cc1F)CC(Nc1ccc(-c3nnc(N4CC(c5c[nH]nn5)C4)o3)cn1)C2 [Example 54, 5-(5-(3-(1H-1,2,3-triazol-4-yl)azetidin-1-yl)-1,3,4-oxadiazol-2-yl)-N-(5,6-difluoro-2,3-dihydro-1H-inden-2-yl)pyridin-2-amine] | 23.4
CS(=O)(=O)OC1CN(c2nnc(-c3cnc(NC4Cc5cc(F)c(F)cc5C4)nc3)o2)C1 [Example 55, 1-(5-(2-((5,6-difluoro-2,3-dihydro-1H-inden-2-yl)amino)pyrimidin-5-yl)-1,3,4-oxadiazol-2-yl)azetidin-3-yl methanesulfonate] | 17.6
Fc1cc2c(cc1F)CC(Nc1ncc(-c3nnc(N4CC(F)(c5c[nH]nn5)C4)o3)cn1)C2 [Example 56, N-(5,6-difluoro-2,3-dihydro-1H-inden-2-yl)-5-(5-(3-fluoro-3-(1H-1,2,3-triazol-4-yl)azetidin-1-yl)-1,3,4-oxadiazol-2-yl)pyrimidin-2-amine] | 85.2
N#CC1CN(c2nnc(-c3cnc(NC4Cc5cc(F)c(F)cc5C4)nc3)o2)C1 [Example 57, 1-(5-(2-((5,6-difluoro-2,3-dihydro-1H-inden-2-yl)amino)pyrimidin-5-yl)-1,3,4-oxadiazol-2-yl)azetidine-3-carbonitrile] | 8.6
Fc1cc2c(cc1F)CC(Nc1ncc(-c3nnc(N4CC(c5nnc(C(F)(F)F)o5)C4)o3)cn1)C2 [Example 58, N-(5,6-difluoro-2,3-dihydro-1H-inden-2-yl)-5-(5-(3-(5-(trifluoromethyl)-1,3,4-oxadiazol-2-yl)azetidin-1-yl)-1,3,4-oxadiazol-2-yl)pyrimidin-2-amine] | 1

Continued, values first:

inhibition at 0.5 µM [%] | SMILES
49.5 | Clc1cc(Cl)cc(CCNc2ncc(-c3nnc(N4CC(c5c[nH]nn5)C4)o3)cn2)c1 [Example 59, 5-(5-(3-(1H-1,2,3-triazol-4-yl)azetidin-1-yl)-1,3,4-oxadiazol-2-yl)-N-(3,5-dichlorophenethyl)pyrimidin-2-amine]
1 | Fc1cc2c(cc1F)CC(Nc1cnc(-c3nnc(N4CC(c5c[nH]nn5)C4)o3)cn1)C2 [Example 60, 5-(5-(3-(1H-1,2,3-triazol-4-yl)azetidin-1-yl)-1,3,4-oxadiazol-2-yl)-N-(5,6-difluoro-2,3-dihydro-1H-inden-2-yl)pyrazin-2-amine]
1 | Fc1cc2c(cc1F)CC(Nc1ncc(-c3nnc(N4CC(c5nnc(C(F)F)o5)C4)o3)cn1)C2 [Example 61, N-(5,6-difluoro-2,3-dihydro-1H-inden-2-yl)-5-(5-(3-(5-(difluoromethyl)-1,3,4-oxadiazol-2-yl)azetidin-1-yl)-1,3,4-oxadiazol-2-yl)pyrimidin-2-amine]
1 | CC(C)(C)C(=O)OCn1cc(C2CN(c3nnc(-c4cnc(NC5Cc6ccc(Br)cc6C5)nc4)o3)C2)nn1 (stereo not shown) [Example 62, (4-(1-(5-(2-((5-bromo-2,3-dihydro-1H-inden-2-yl)amino)pyrimidin-5-yl)-1,3,4-oxadiazol-2-yl)azetidin-3-yl)-1H-1,2,3-triazol-1-yl)methyl pivalate]
1 | CC(C)(C)C(=O)OCn1cc(C2CN(c3nnc(-c4cnc(NC5Cc6ccc(F)cc6C5)nc4)o3)C2)nn1 (stereo not shown) [Example 63, (4-(1-(5-(2-((5-fluoro-2,3-dihydro-1H-inden-2-yl)amino)pyrimidin-5-yl)-1,3,4-oxadiazol-2-yl)azetidin-3-yl)-1H-1,2,3-triazol-1-yl)methyl pivalate]
100 | Brc1ccc2c(c1)CC(Nc1ncc(-c3nnc(N4CC(c5c[nH]nn5)C4)o3)cn1)C2 (stereo not shown) [Example 64, 5-(5-(3-(1H-1,2,3-triazol-4-yl)azetidin-1-yl)-1,3,4-oxadiazol-2-yl)-N-(5-bromo-2,3-dihydro-1H-inden-2-yl)pyrimidin-2-amine]
100 | Fc1ccc2c(c1)CC(Nc1ncc(-c3nnc(N4CC(c5c[nH]nn5)C4)o3)cn1)C2 (stereo not shown) [Example 65, 5-(5-(3-(1H-1,2,3-triazol-4-yl)azetidin-1-yl)-1,3,4-oxadiazol-2-yl)-N-(5-fluoro-2,3-dihydro-1H-inden-2-yl)pyrimidin-2-amine]
35.8 | O=c1[nH]nc(C2CN(c3nnc(-c4cnc(NC5Cc6cc(F)c(F)cc6C5)nc4)o3)C2)o1 [Example 66, 5-(1-(5-(2-((5,6-difluoro-2,3-dihydro-1H-inden-2-yl)amino)pyrimidin-5-yl)-1,3,4-oxadiazol-2-yl)azetidin-3-yl)-1,3,4-oxadiazol-2(3H)-one]
74.7 | Cc1nc(NC2Cc3cc(F)c(F)cc3C2)ncc1-c1nnc(N2CC(c3c[nH]nn3)C2)o1 [Example 67, 5-(5-(3-(1H-1,2,3-triazol-4-yl)azetidin-1-yl)-1,3,4-oxadiazol-2-yl)-N-(5,6-difluoro-2,3-dihydro-1H-inden-2-yl)-4-methylpyrimidin-2-amine]

— patent EP4559911A1, “NOVEL HETEROCYCLIC COMPOUND AND PHARMACEUTICAL COMPOSITION FOR INHIBITING AUTOTAXIN COMPRISING THE SAME” (Nextgen Bioscience Co., Ltd., priority 2022, dated 2024)
